Reference: patent US11390589B2, “Herbicidally active substituted phenylpyrimidines” (Bayer Aktiengesellschaft, priority 2018, dated 2022)

Assays:
Type in all cases: in vivo
Lolium perenne = test: Method E: herbicidal early post-emergence action; settings: cotyledon stage, 96-well microtiter plates, scored visually after 9 to 12 days
Procedure: (§1) Method E: Herbicidal Early Post-Emergence Action Seeds of monocotyledonous or dicotyledonous weed plants are placed in 96-well microtiter plates in quartz sand and grown in a climatized chamber under controlled growth conditions. 5 to 7 days after sowing, the test plants are treated at the cotyledon stage. The compounds of the invention, formulated in the form of emulsion concentrates (EC), are applied with a water application rate of the equivalent of 2200 liters per hectare. After the test plants had been left to stand in the climatized chamber for 9 to 12 days under optimum growth conditions, the effect of the preparations is scored visually in comparison to untreated controls. For example, 100% activity=the plants have died, 0% activity=like control plants.

Poa annua = test: Method E: herbicidal early post-emergence action; settings: cotyledon stage, 96-well microtiter plates, scored visually after 9 to 12 days
Procedure: as §1

Stellaria media [1] = test: Method E: herbicidal early post-emergence action; settings: cotyledon stage, 96-well microtiter plates, scored visually after 9 to 12 days
Procedure: as §1

Agrostis tenuis = test: Method E: herbicidal early post-emergence action; settings: cotyledon stage, 96-well microtiter plates, scored visually after 9 to 12 days
Procedure: as §1

Matricaria chamonilla = test: Method E: herbicidal early post-emergence action; settings: cotyledon stage, 96-well microtiter plates, scored visually after 9 to 12 days
Procedure: as §1

harmful plants [2] = test: Method B: pre-emergence herbicidal action, summary in text; settings: applied pre-emergence, table B (320 g/ha)
Source text: (§2) Method B: Pre-Emergence Herbicidal Action and Crop Plant Compatibility
(§3) Seeds of monocotyledonous and dicotyledonous weed plants and crop plants are placed in plastic or organic planting pots and covered with soil. The compounds of the invention, formulated in the form of wettable powders (WP) or as emulsion concentrates (EC), are then applied onto the surface of the covering soil as aqueous suspension or emulsion with addition of 0.5% additive at a water application rate of […] (converted). After the treatment, the pots are placed in a greenhouse and kept under good growth conditions for the trial plants. After about 3 weeks, the effect of the preparations is scored visually in comparison with untreated controls as percentages. For example, 100% activity=the plants have died, 0% activity=like control plants.

Lolium rigidum [3] = test: Method A: post-emergence herbicidal action; settings: rated visually after about 3 weeks
Procedure: (§4) Method A: Post-Emergence Herbicidal Action and Crop Plant Compatibility
(§5) Seeds of monocotyledonous and dicotyledonous weeds and crop plants are placed in sandy loam in plastic or organic planting pots, covered with soil and cultivated in a greenhouse under controlled growth conditions. 2 to 3 weeks after sowing, the test plants are treated at the one-leaf stage. The compounds of the invention, formulated in the form of wettable powders (WP) or as emulsion concentrates (EC), are then sprayed onto the green parts of the plants as aqueous suspension or emulsion with addition of 0.5% additive at a water application rate of […] (converted). After the test plants have been kept in the greenhouse under optimum growth conditions for about 3 weeks, the activity of the preparations is rated visually in comparison to untreated controls. For example, 100% activity=the plants have died, 0% activity=like control plants.

Avena fatua [4] = test: Method A: post-emergence herbicidal action; settings: rated visually after about 3 weeks
Procedure: as §4, §5

Alopecurus myosuroides [5] = test: Method A: post-emergence herbicidal action; settings: rated visually after about 3 weeks
Procedure: as §4, §5

Echinochloa crus-galli [6] = test: Method A: post-emergence herbicidal action; settings: rated visually after about 3 weeks
Procedure: as §4, §5

Hordeum murinum [7] = test: Method A: post-emergence herbicidal action; settings: rated visually after about 3 weeks
Procedure: as §4, §5

Polygonum convolvulus [8] = test: Method A: post-emergence herbicidal action; settings: rated visually after about 3 weeks
Procedure: as §4, §5

Stellaria media [9] = test: Method A: post-emergence herbicidal action; settings: rated visually after about 3 weeks
Procedure: as §4, §5

harmful plants [10] = test: Method A: post-emergence herbicidal action, summary in text; settings: applied post-emergence, table A (320 g/ha)
Procedure: as §4, §5

Lolium rigidum [11] = test: Method B: pre-emergence herbicidal action; settings: scored visually after about 3 weeks
Source text: as §2, §3

Avena fatua [12] = test: Method B: pre-emergence herbicidal action; settings: scored visually after about 3 weeks
Source text: as §2, §3

Digitaria sanguinalis = test: Method B: pre-emergence herbicidal action; settings: scored visually after about 3 weeks
Source text: as §2, §3

Abufilon theophrast = test: Method B: pre-emergence herbicidal action; settings: scored visually after about 3 weeks
Source text: as §2, §3

Alopecurus myosuroides [13] = test: Method B: pre-emergence herbicidal action; settings: scored visually after about 3 weeks
Source text: as §2, §3

Echinochloa crus-galli [14] = test: Method B: pre-emergence herbicidal action; settings: scored visually after about 3 weeks
Source text: as §2, §3

Hordeum murinum [15] = test: Method B: pre-emergence herbicidal action; settings: scored visually after about 3 weeks
Source text: as §2, §3

Polygonum convolvulus [16] = test: Method B: pre-emergence herbicidal action; settings: scored visually after about 3 weeks
Source text: as §2, §3

Stellaria media [17] = test: Method B: pre-emergence herbicidal action; settings: scored visually after about 3 weeks
Source text: as §2, §3

harmful plants [18] = test: Method E: herbicidal early post-emergence action, summary in text; settings: applied in early post-emergence, table E (1900 g/ha)
Procedure: as §1

Row | SMILES | Early post-emergence action at 1900 g/ha POAAN (Poa annua) | Early post-emergence action at 1900 g/ha AGSTE (Agrostis tenuis) | Early post-emergence action at 1900 g/ha MATCH (Matricaria chamonilla) | herbicidal efficacy against harmful plants (harmful plants [2]) | Post-emergence action at 320 g/ha LOLRI (Lolium rigidum [3]) | Post-emergence action at 320 g/ha AVEFA (Avena fatua [4]) | Post-emergence action at 320 g/ha ALOMY (Alopecurus myosuroides [5]) | Post-emergence action at 320 g/ha ECHCG (Echinochloa crus-galli [6]) | Post-emergence action at 320 g/ha HORMU (Hordeum murinum [7]) | Post-emergence action at 320 g/ha POLCO (Polygonum convolvulus [8]) | Post-emergence action at 320 g/ha STEME (Stellaria media [9]) | herbicidal efficacy against harmful plants (harmful plants [10]) | Pre-emergence action at 320 g/ha LOLRI (Lolium rigidum [11]) | Pre-emergence action at 320 g/ha AVEFA (Avena fatua [12]) | Pre-emergence action at 320 g/ha DIGSA (Digitaria sanguinalis) | Pre-emergence action at 320 g/ha ABUTH (Abufilon theophrast) | Pre-emergence action at 320 g/ha ALOMY (Alopecurus myosuroides [13]) | Pre-emergence action at 320 g/ha ECHCG (Echinochloa crus-galli [14]) | Pre-emergence action at 320 g/ha HORMU (Hordeum murinum [15]) | Pre-emergence action at 320 g/ha POLCO (Polygonum convolvulus [16]) | also measured
1 | CN(C)C(=O)C(=O)Cc1nc(C2CC2)ncc1-c1ccccc1Cl [Example I-139, 3-[5-(2-chlorophenyl)-2-cyclopropylpyrimidin-4-yl]-N,N-dimethyl-2-oxopropanamide] | 100% | 100% | 100% | very good herbicidal efficacy | 100% | 90% | 100% | 90% | 90% | 90% | 80% | very good herbicidal efficacy | 100% | 80% | 100% | 80% | 100% | 100% | 90% | 90% | Early post-emergence action at 1900 g/ha LOLPE (Lolium perenne): 80%; Early post-emergence action at 1900 g/ha STEME (Stellaria media [1]): 100%; Pre-emergence action at 320 g/ha STEME (Stellaria media [17]): 100%
2 | CCOC(=O)C(=O)Cc1nc(C2CC2)ncc1-c1ccccc1Cl [II-099, ethyl 3-[5-(2-chlorophenyl)-2-cyclopropylpyrimidin-4-yl]-2-oxopropanoate] | 100% | 100% | 100% | very good herbicidal efficacy | 100% | 90% | 90% | 90% | 80% | 90% | 100% | very good herbicidal efficacy | 100% | 90% | 90% | 80% | 100% | 100% | 90% | 90% | herbicidal efficacy against harmful plants (harmful plants [18]): very good herbicidal efficacy; Pre-emergence action at 320 g/ha STEME (Stellaria media [17]): 100%
